Data published in patent publication US12351556B2, “Pyridin-2(1H)one derivatives, their preparation and their use for the treatment of pain” (INSTITUT NATIONAL DE LA SANTE ET DE LA RECHERCHE MEDICALE …, priority 2019, dated 2025).
“Also recorded” adds a separate entry of the source.

Test system: facial neuropathic MA (IoN-CCl)
Assay: Neuropathic MA: chronic constriction injury of the infraorbital nerve (IoN-CCl)
Type: in vivo
Conditions: rat, intracisternal 5 μL at 100 μM, 14 days after IoN-CCl
Protocol: Time courses of changes in behavioral responses (allodynic score) evoked by normally innocuous mechanical stimuli (6-g von Frey filament) applied on the face of rats intracisternally treated with compound 69 (5 μL at 100 μM) or vehicle. In A, compound 69 or vehicle was preemptively applied 30 min before subcutaneous injection of CFA (at time 0). In B, compound 69 or vehicle was applied (at time 0) 14 days after IoN-CCl; that is, once a stable MA was established. […] Results are presented as mean±s.e.m.; n=4 (A) and n=5 (B) in each group. Allodynic score (from 0 to 4) according to Vos et al. J. Neurosci. 1994, 14, 2708-2723.
Rat model of neuropathic MA: chronic constriction injury of the rat's infraorbital nerve (IoN-CCl).
IoN-CCl was performed following a previously established surgical procedure Vos et al J. Neurosci. […]
For investigating the effects of synthetized compounds upon mechanical allodynia, animals were briefly (<2 min) anesthetized using a mask with 2% isoflurane and received an intracisternal injection of 5 μL of compound (100 μM) or vehicle alone (saline+1% DMSO) using a 10 μL Hamilton syringe. […] The behavioral responses were observed and quantified by a second experimenter (see below). […]
Compound 69 was also evaluated in a rat model of facial neuropathic MA produced by the constriction injury of the rat infraorbital nerve (IoN-CCl; J. Neurosci. 1994, 14, 2708-2723) (FIG. 2B). […]

SMILES: O=c1[nH]cc(Nc2ccccc2)cc1-c1ccccc1Br [Compound 69, 3-(2-Bromophenyl)-5-(phenylamino)pyridin-2(1H)-one]
- reversal of neuropathic MA (allodynic score): reversed MA; also recorded: quickly reversed
